# Article PMC6366974, “The curcumin analog EF24 is a novel senolytic agent” (Aging (Albany NY), 2019)
# Experiments:
# [1] = system: IMR-90 fibroblasts IR-SCs; test: Cell viability assay (flow cytometry, PI); format: cell-based; conditions: Homo sapiens, IMR-90, 72 h
# WI-38 IR-SCs [2] = test: ROS measurement (DHR staining, flow cytometry); format: cell-based, human; conditions: 2 µM, 3 h and 6 h, DHR MFI
# Method: (§1) WI-38 NCs and IR-SCs were incubated with vehicle or 2 µM EF24 for 3, 6, 24, or 72 h. After removal of suspension cells, adherent cells were detached using 0.25% Trypsin-EDTA at 37°C for 5 min. They were rinsed with DMEM once and then incubated with pre-warmed DMEM medium containing 1 µM dihydrorhodamine 123 (DHR, Cat. No. D23806, Thermo Fisher Scientific, Waltham, MA, USA) at 37°C for 30 min in dark. After washing in 4 mL DMEM with 100 ng/mL PI, cells were centrifuged immediately at 1,000 r.p.m. for 5 min to remove PI and re-suspended in DMEM medium for flow cytometry analysis. Mean fluorescence intensity (MFI) of PI negative cells was determined using the BD LSR II flow cytometer.
# WI-38 NCs [3] = test: ROS measurement (DHR staining, flow cytometry); format: cell-based, human; conditions: 2 µM, 3 h and 6 h, DHR MFI
# Method: as §1
# [4] = system: WI-38 non-senescent cells (NCs); test: Cell viability assay (flow cytometry, PI); format: cell-based, human; conditions: for EC50: Homo sapiens, WI-38, 72 h
# Method: (§2) Human WI-38 fibroblasts (WI-38, Cat. No. CCL-75), human IMR-90 fibroblasts (IMR-90, Cat. No. CCL-186), human umbilical vein endothelial cells (HUVEC, Cat. No. CRL-1730), human renal epithelial cells (HREC, Cat. No. PCS-400-012) and human pre-adipocytes (Cat. No. PCS-210-010) were newly purchased from the American Type Culture Collection (ATCC, Manassas, VA, USA). WI-38 and IMR-90 cells were cultured in complete Dulbecco’s modified Eagle medium (DMEM, Cat. No. 12430054, Thermo Fisher Scientific, Waltham, MA, USA) supplemented with 10% heat-inactivated fetal bovine serum (FBS, Cat. No. S11150H, Atlanta Biologicals, Flowery Branch, GA, USA), 100 U/mL penicillin and 100 µg/mL streptomycin (Pen Strep, Cat. No. 15140122, Thermo Fisher Scientific, Waltham, MA, USA) in a humidified incubator at 37°C and 5% CO2. HUVEC were cultured in EGM-2 BulletKit (Cat. No. CC-3162, Lonza, Basel, Switzerland) containing basal medium supplemented with growth factors, cytokines and other supplements according to the manufacturer’s protocol. HREC were cultured in renal epithelial cell basal medium (Cat. No. PCS-400-030, ATCC, Manassas, VA, USA) supplemented with renal epithelial cell growth kit (Cat. No. PCS400040, ATCC, Manassas, VA, USA). Human pre-adipocytes were cultured in fibroblast basal medium (Cat. No. PCS-201-030, ATCC, Manassas, VA, USA) supplemented with fibroblast growth kit-low serum (Cat. No. PCS201041, ATCC, Manassas, VA, USA). EF24 (Cat. No. E8409) and HO-3867 (Cat. No. S7501) were purchased from Sigma-Aldrich (St. Louis, MO, USA) and Selleckchem (Houston, TX, USA), respectively. DIMC (Cat. No. 10009986) and 2-HBA (Cat. No. 11879) were both purchased from Cayman Chemical (Ann Arbor, MI, USA).
# (§3) Three different methods were used for the induction of SCs, including replicative exhaustion, ionizing radiation and ectopic Ras expression as previously described. Briefly, low-passage WI-38 cells (< 25 passages), IMR-90 cells (< 25 passages), HUVEC (< 10 passages), HREC (< 10 passages) and pre-adipocytes (< 4 passages) were used as NCs or for the induction of senescence. To induce replicative senescence (Rep-SCs), WI-38 and IMR-90 fibroblasts, HUVEC, HREC and pre-adipocytes were subcultured until they stopped to divide and became permanently growth arrested senescence after 38 passages (WI-38), 38 passages (IMR-90), 22 passages (HUVEC), 30 passages (HREC) and 10 passages (pre-adipocytes), respectively. To induce SCs by ionizing radiation (IR-SCs) and ectopic expression of Ras (Ras-SCs), WI-38 NCs were treated as previously described.
# (§4) Number of viable cells were quantified using flow cytometry as previously described with slight modifications. Specifically, NCs and SCs were incubated with vehicle (0.1% DMSO) or a test compound at indicated concentrations for 72 h. Following dissociation with 0.25% Trypsin-EDTA (Cat. No. 25200056, Thermo Fisher Scientific, Waltham, MA, USA) at 37°C for 5 min, the cells were harvested in 100 µl pre-cooled phosphate buffered saline (PBS, Cat. No. 20012027, Thermo Fisher Scientific, Waltham, MA, USA) containing 2% FBS and 100 ng/mL propidium iodide (PI, P4170, Sigma-Aldrich, St. Louis, MO, USA) and analyzed using flow cytometry (LSR II, BD Biosciences, San Jose, CA, USA). Percentage of viable cells were determined by counting the number of PI negative cells (viable cells) and then calculated as a ratio of control cells treated with vehicle. In addition, dose-response curves were generated for each compound, and the concentration for 50% of maximal effect (EC50 values) was calculated using GraphPad Prism 6.
# [5] = system: WI-38 IR-induced senescent cells (IR-SCs); test: Cell viability assay (flow cytometry, PI); format: cell-based, human; conditions: WI-38, 72 h; for EC50: Homo sapiens
# Method: as §2, §3, §4
# WI-38 IR-SCs [6] = test: Apoptosis analysis (Annexin-V/PI flow cytometry); format: cell-based, human; conditions: 2 µM, 72 h
# Method: (§5) WI-38 NCs and SCs were treated with vehicle or 10 µM Q-VD-OPh (QVD, Cat. No. S7311, Selleckchem, Houston, TX, USA) for 4 h prior to the addition of vehicle or 2 µM EF24 for 72 h. The suspending cells were first harvested from the culture and then pooled with the adherent cells detached by 0.25% Trypsin-EDTA at 37°C for 5 min in 12 × 75 mm polystyrene round-bottom tubes (Cat. No. 352058, Falcon, Corning, NY, USA) containing complete DMEM medium. The cells were stained with Alexa Fluor 647-Annexin V (1: 50, Cat. No. 640912, BioLegend, San Diego, CA, USA) and PI (10 µg/mL, Cat. No. 421301, BioLegend, San Diego, CA, USA) at room temperature for 30 min. The stained cells were analyzed using a BD LSR II flow cytometer.
# WI-38 NCs [7] = test: Apoptosis analysis (Annexin-V/PI flow cytometry); format: cell-based, human; conditions: 2 µM, 72 h
# Method: as §5
smiles,measurement,setting,value
O=C1/C(=C/c2ccccc2F)CNC/C1=C\c1ccccc1F [EF24],EC50,[1],1720 nM
same,ROS production in IR-SCs,WI-38 IR-SCs [2],did not increase ROS production
same,ROS production in NCs,WI-38 NCs [3],did not increase ROS production
same,EC50,[4]; Table 2,4320 nM
same,EC50,"[4]; WI-38 NCs, 72 h, Table 1 screen of curcumin analogs",4690 nM
same,effect on the cell viability of WI-38 NCs,"[4]; below 4 μM, 72 h",minimal effect
same,EC50,[5]; Table 2,1740 nM
same,EC50,"[5]; WI-38 IR-SCs, 72 h, Table 1 screen of curcumin analogs",1620 nM
same,selective toxicity against IR-SCs versus NCs (viability),[5],lesser toxicities to NCs
same,number of PI positive cells representing necrotic cells in IR-SCs,WI-38 IR-SCs [6],not any significant changes
same,number and percentage of Annexin-V positive apoptotic cells in IR-SCs,WI-38 IR-SCs [6]; compared to vehicle,significantly increased
same,induction of apoptosis in NCs,WI-38 NCs [7],did not induce apoptosis
